Reference: patent US12643871B2, “Aryl formamide compound containing chiral sulfur oxide or salt thereof, preparation method, herbicidal composition and use thereof” (Qingdao Kingagroot Chemical Compound Co., Ltd., priority 2019, dated 2026)

Columns and labels:
Assay type in all cases: in vivo
[1] = test system: Amaranthus retroflexus; test: Weeding effect in post-emergence stage; conditions: 250 g/ha; 2 leaf stage; 15 days after application; fresh weight control rate
How it was run: (§1)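 Pot-grown weeds sprayed post-emergence at the 2-leaf stage, 2 weeks after sowing, with compound in acetone/Tween 80 plus 1.5 L/ha methyl oleate concentrate at 500–15 g/ha. Fresh-weight growth control scored after 15 days in greenhouse, mean of three replicates, graded levels 0–5 (5: >85%, 0: <5%).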

[2] = test system: Echinochloa crusgali; test: Weeding effect in post-emergence stage; conditions: 250 g/ha; 2 leaf stage; 15 days after application; fresh weight control rate
How it was run: as §1

[3] = test system: Digitaria sanguinalis; test: Weeding effect in post-emergence stage; conditions: 250 g/ha; 2 leaf stage; 15 days after application; fresh weight control rate
How it was run: as §1

[4] = test system: Setaria viridis; test: Weeding effect in post-emergence stage; conditions: 250 g/ha; 2 leaf stage; 15 days after application; fresh weight control rate
How it was run: as §1

[5] = test system: Abutilon theophrasti; test: Weeding effect in post-emergence stage; conditions: 250 g/ha; 2 leaf stage; 15 days after application; fresh weight control rate
How it was run: as §1

[6] = test system: key weeds such as Digitaria sanguinalis, Leptochloa chinensis; test: Comparison experiment (post-emergence, Tables 4-7), herbicidal activity on weeds not listed separately
Excerpt: The above growth control rates are fresh weight control rates.
Experiment on weeding effect in post-emergence stage: monocotyledonous and dicotyledonous weed seeds (Descurainia sophia, Capsella bursa-pastoris, Galium aparine, Stellaria media, Lithospermum arvense, Rorippa indica, Alopecurus aequalis, Beckmannia syzigachne, Sclerochloa dura, Phleum paniculatum, Bromus japonicus, Aegilops tauschii, Phalaris arundinacea, Amaranthus retroflexus, Chenopodiaceae, Commelina communis, Sonchus arvensis, convolvulus arvensis, Cirsium setosum, Solanum nigrum, Acalypha australis, Digitaria sanguinalis, Echinochloa crusgalli, Setaria viridis, Setaria glauca, Leptochloa chinensis, Monochoria vaginalis, Sagittaria trifolia, Scirpus juncoides, Cyperus rotundus, Cyperus iria, Cyperus difformis, Fimbristylis, Portulaca oleracea, Xanthium sibiricum, Pharbitis nil) and major crop seeds (wheat, corn, rice, soybean, cotton, oilseed rape, millet, sorghum, potato, sesame, ricinus) were placed in plastic pots filled with soil, then covered with 0.5-2 cm of soil, allowed to grow in a good greenhouse environment. After 2 weeks of sowing, the test plants were treated in the 2 leaf stage. The tested compounds of the present invention were respectively dissolved in acetone, then added with Tween 80 and 1.5 liter/ha of emulsifiable concentrate of methyl oleate as synergist, diluted with a certain amount of water to obtain a solution with a certain concentration, and sprayed with a spray tower onto the plants. After the application, the plants were cultured for 15 days in the greenhouse, and then the experimental results of the weeding were counted. The doses of the used compounds were 500, 250, 125, 60, 30, 15 g/ha, and the averages were obtained by repeating for three times.
If there is no clear marker, the post-seedling test conditions are the same as above, and the experimental results are shown in Tables 4-7.

[7] = doses of 125, 60, 30, 15 g/ha, X replaced by other five membered rings

Structure (SMILES) | weeding effect in post-emergence stage, activity level (growth control rate), Amaranthus retroflexus [1] | weeding effect in post-emergence stage, activity level (growth control rate), Echinochloa crusgali [2] | weeding effect in post-emergence stage, activity level (growth control rate), Digitaria sanguinalis [3] | weeding effect in post-emergence stage, activity level (growth control rate), Setaria viridis [4] | weeding effect in post-emergence stage, activity level (growth control rate), Abutilon theophrasti [5] | herbicidal activity and/or crop safety compared with the corresponding racemate or S configuration [6, 7] | herbicidal activity and/or crop safety compared with the corresponding racemate or S configuration ([6]; dose of 120, 48, 30, 24 g/ha)
CCC[S@@+]([O-])c1c(C(F)(F)F)ccc(C(=O)Nc2nnnn2C)c1F [Compound 379] | 5 (Level 5: growth control rate is above 85%) | 5 (Level 5: growth control rate is above 85%) | 5 (Level 5: growth control rate is above 85%) | 5 (Level 5: growth control rate is above 85%) | 5 (Level 5: growth control rate is above 85%) | better herbicidal activity and/or crop safety | 
CC(C)C[S@@+]([O-])c1c(C(F)(F)F)ccc(C(=O)Nc2nnnn2C)c1F [Compound 380] | 5 (Level 5: growth control rate is above 85%) | 5 (Level 5: growth control rate is above 85%) | 5 (Level 5: growth control rate is above 85%) | 5 (Level 5: growth control rate is above 85%) | 5 (Level 5: growth control rate is above 85%) | better herbicidal activity and/or crop safety | 
CCCC[S@@+]([O-])c1c(C(F)(F)F)ccc(C(=O)Nc2nnc(C)o2)c1SC [Compound 550] | 5 (Level 5: growth control rate is above 85%) | 5 (Level 5: growth control rate is above 85%) | 5 (Level 5: growth control rate is above 85%) | 5 (Level 5: growth control rate is above 85%) | 5 (Level 5: growth control rate is above 85%) |  | better herbicidal activity and/or crop safety
C=CC[S@@+]([O-])c1c(C(F)(F)F)ccc(C(=O)Nc2nnc(C)o2)c1SC [Compound 552] | 5 (Level 5: growth control rate is above 85%) | 5 (Level 5: growth control rate is above 85%) | 5 (Level 5: growth control rate is above 85%) | 5 (Level 5: growth control rate is above 85%) | 5 (Level 5: growth control rate is above 85%) |  | better herbicidal activity and/or crop safety
CSc1c(C(=O)Nc2nnc(C)o2)ccc(C(F)(F)F)c1[S@+]([O-])CC1CC1 [Compound 554] | 5 (Level 5: growth control rate is above 85%) | 5 (Level 5: growth control rate is above 85%) | 5 (Level 5: growth control rate is above 85%) | 5 (Level 5: growth control rate is above 85%) | 5 (Level 5: growth control rate is above 85%) |  | better herbicidal activity and/or crop safety
